The values below come from ChEMBL document CHEMBL4339203, “Structural requirements of cholenamide derivatives as the LXR ligands” (Bioorg Med Chem Lett, 2019).

As usually defined, the EC50 is the midpoint of the concentration-response curve.

Data set [1] has as its target T1, Oxysterols receptor LXR-beta (Rattus norvegicus, UniProt Q62755).
T1 sequence (Q62755 whole entry): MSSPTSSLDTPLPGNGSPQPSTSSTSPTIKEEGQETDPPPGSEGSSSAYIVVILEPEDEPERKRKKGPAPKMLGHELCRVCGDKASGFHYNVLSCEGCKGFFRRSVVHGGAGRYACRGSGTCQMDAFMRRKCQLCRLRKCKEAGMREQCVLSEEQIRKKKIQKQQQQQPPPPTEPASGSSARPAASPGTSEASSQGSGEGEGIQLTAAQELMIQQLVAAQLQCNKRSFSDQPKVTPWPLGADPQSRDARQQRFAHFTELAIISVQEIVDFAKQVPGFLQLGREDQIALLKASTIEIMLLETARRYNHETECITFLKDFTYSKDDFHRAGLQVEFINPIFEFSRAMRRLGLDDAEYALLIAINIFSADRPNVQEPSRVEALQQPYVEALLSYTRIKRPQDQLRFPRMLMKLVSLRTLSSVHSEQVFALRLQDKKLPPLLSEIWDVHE
The data set is described as follows: Transactivation of rat LXRbeta expressed in HEK293FT cells measured after 14 to 18 hrs by dual-luciferase reporter gene assay. The class given is cell-based.

The target in data set [2] is T2, Oxysterols receptor LXR-beta (Rattus norvegicus) (UniProt Q62755).
T2 sequence (whole entry): T1 sequence (Q62755 whole entry)
The data set is described as follows: Transactivation of rat LXRbeta expressed in HEK293FT cells measured after 14 to 18 hrs by dual-luciferase reporter gene assay relative to T0901317. The class given is cell-based. Background: A reporter such as luciferase makes a cellular process visible.

The target of data set [3] is T2, Oxysterols receptor LXR-beta (Rattus norvegicus). In words: Transactivation of rat LXRbeta expressed in HEK293FT cells at 5 uM measured after 14 to 18 hrs by dual-luciferase reporter gene assay. The class given is cell-based.
The target is the same in data set [4]. The data set is described as follows: Transactivation of rat LXRbeta expressed in HEK293FT cells co-expressing RXR at 5 uM measured after 14 to 18 hrs by dual-luciferase reporter gene assay. The class given is cell-based.
Data set [5] concerns the target T3, Oxysterols receptor LXR-alpha (Rattus norvegicus, UniProt Q62685).
T3 sequence (Q62685 whole entry): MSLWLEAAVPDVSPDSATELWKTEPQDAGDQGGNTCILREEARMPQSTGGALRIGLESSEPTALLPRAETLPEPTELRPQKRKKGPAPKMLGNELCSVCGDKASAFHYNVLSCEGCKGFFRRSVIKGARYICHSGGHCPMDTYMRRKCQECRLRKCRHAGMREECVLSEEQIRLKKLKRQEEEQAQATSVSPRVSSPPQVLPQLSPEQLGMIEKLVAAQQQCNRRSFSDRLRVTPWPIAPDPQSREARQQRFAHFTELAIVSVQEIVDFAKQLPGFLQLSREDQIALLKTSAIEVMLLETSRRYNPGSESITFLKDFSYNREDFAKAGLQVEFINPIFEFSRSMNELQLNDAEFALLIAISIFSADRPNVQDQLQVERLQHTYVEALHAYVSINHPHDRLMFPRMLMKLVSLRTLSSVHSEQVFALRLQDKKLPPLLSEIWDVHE
In words: Transactivation of rat LXRalpha expressed in HEK293FT cells co-expressing RXR at 5 uM measured after 14 to 18 hrs by dual-luciferase reporter gene assay. The class given is cell-based.

A short description of data set [6]: Ratio of compound effect for transactivation of rat LXRalpha expressed in HEK293FT cells to compound effect for transactivation of rat LXRbeta expressed in HEK293FT cells.

Active and inactive are the calls of the source. No cut-off for these calls is given here.

Turning to `C[C@H](C[C@H]1CCN(C)C1=O)[C@H]1CC[C@H]2[C@@H]3CC=C4C[C@@H](O)CC[C@]4(C)[C@H]3CC[C@]12C`, the EC50 in data set [1] (read-out: EC50) worked out at 1290 nM.

Regarding `CCN1CCC[C@@H](C[C@@H](C)[C@H]2CC[C@H]3[C@@H]4CC=C5C[C@@H](O)CC[C@]5(C)[C@H]4CC[C@]23C)C1=O`, the EC50 in data set [1] (read-out: EC50) was found to be 643 nM. The same compound registered an Efficacy in data set [2] of 62%.

As for `C[C@H](CCC(=O)N1CCCC1)[C@H]1CC[C@H]2[C@@H]3CC=C4C[C@@H](O)CC[C@]4(C)[C@H]3CC[C@]12C`, in data set [1] (read-out: EC50), the EC50 stood at 165 nM. In addition, the result in data set [3] was Active. The compound also gave an Efficacy in data set [2] of 99%.

In the case of `CCN(C)C(=O)C(C)C[C@@H](C)[C@H]1CC[C@H]2[C@@H]3CC=C4C[C@@H](O)CC[C@]4(C)[C@H]3CC[C@]12C` (stereo in doubt; 11) [listing 1 of 2 here], the Efficacy in data set [2] amounted to 65%.

Turning to `C[C@H](CCC(=O)N(C)C)[C@H]1CC[C@H]2[C@@H]3CC=C4C[C@@H](O)CC[C@]4(C)[C@H]3CC[C@]12C`, the EC50 in data set [1] (read-out: EC50) lay within 124 to 464 nM. Moreover, the outcome in data set [3] was Active. The Efficacy in data set [2] is 100%.

Take `CCN(CC)C(=O)CC[C@@H](C)[C@H]1CC[C@H]2[C@@H]3CC=C4C[C@@H](O)CC[C@]4(C)[C@H]3CC[C@]12C`: the concentration giving a half-maximal response (EC50) in data set [1] (read-out: EC50) was found to be 344 nM. The outcome in data set [4] and in data set [3] was Active. For the same compound, the Efficacy in data set [2] amounted to 211%. The outcome in data set [5] was Active.

Turning to `C[C@H](CCC(=O)N1CCCCC1)[C@H]1CC[C@H]2[C@@H]3CC=C4C[C@@H](O)CC[C@]4(C)[C@H]3CC[C@]12C`, in data set [1] (read-out: EC50), the concentration for a half-maximal effect (EC50) was determined as 127 nM. Also, the outcome in data set [3] was Active. Also, the Efficacy in data set [2] was 134%.

Consider `CC(C)N(C(=O)CC[C@@H](C)[C@H]1CC[C@H]2[C@@H]3CC=C4C[C@@H](O)CC[C@]4(C)[C@H]3CC[C@]12C)C(C)C`, for which the half-maximal effective concentration (EC50) in data set [1] (read-out: EC50) was 1110 nM. The outcome in data set [4] and in data set [3] was Active. Moreover, the Ratio in data set [6] was found to be 2. The Efficacy in data set [2] came out at 148%. Also, in data set [5], the result was Active.

On to `CCN(C)C(=O)C(C)C[C@@H](C)[C@H]1CC[C@H]2[C@@H]3CC=C4C[C@@H](O)CC[C@]4(C)[C@H]3CC[C@]12C` (stereo in doubt; 10) [listing 1 of 2 here], for which the concentration for a half-maximal effect (EC50) in data set [1] (read-out: EC50) stood at 3900 nM.

Take `C[C@H](C[C@@H]1CCCCN(C)C1=O)[C@H]1CC[C@H]2[C@@H]3CC=C4C[C@@H](O)CC[C@]4(C)[C@H]3CC[C@]12C`: in data set [1] (read-out: EC50), the concentration giving a half-maximal response (EC50) came to 462 nM. Further, in data set [2], the Efficacy came out at 80%.

In the case of `CCCN(C)C(=O)CC[C@@H](C)[C@H]1CC[C@H]2[C@@H]3CC=C4C[C@@H](O)CC[C@]4(C)[C@H]3CC[C@]12C`, in data set [1] (read-out: EC50), the EC50 is 1020 nM. Further, the result in data set [4] was Active. Also, in data set [2], the Efficacy came out at 102%. Besides, in data set [5], the outcome was Active.

`CCN(C)C(=O)C(C)C[C@@H](C)[C@H]1CC[C@H]2[C@@H]3CC=C4C[C@@H](O)CC[C@]4(C)[C@H]3CC[C@]12C` (stereo in doubt; 11) [listing 2 of 2 here]: in data set [1] (read-out: EC50), the EC50 came out at 1990 nM.

Regarding `C[C@H](C[C@H]1CCCN(C)C1=O)[C@H]1CC[C@H]2[C@@H]3CC=C4C[C@@H](O)CC[C@]4(C)[C@H]3CC[C@]12C`, the EC50 in data set [1] (read-out: EC50) is 239 nM.

For `CCN(C)C(=O)CC[C@@H](C)[C@H]1CC[C@H]2[C@@H]3CC=C4C[C@@H](O)CC[C@]4(C)[C@H]3CC[C@]12C`, the EC50 in data set [1] (read-out: EC50) was determined as 786 nM. The outcome in data set [4] was Active. The Efficacy in data set [2] is 108%. Besides, in data set [5], the outcome was Active.

Take `C[C@H](C[C@@H]1CCN(C)C1=O)[C@H]1CC[C@H]2[C@@H]3CC=C4C[C@@H](O)CC[C@]4(C)[C@H]3CC[C@]12C`: the concentration for a half-maximal effect (EC50) entry in data set [1] was “Not Active”.

For `CC(C)NC(=O)CC[C@@H](C)[C@H]1CC[C@H]2[C@@H]3CC=C4C[C@@H](O)CC[C@]4(C)[C@H]3CC[C@]12C`, in data set [1] (read-out: EC50), the EC50 came out at 862 nM. The outcome in data set [3] was Active. In data set [2], this compound returned an Efficacy of 85%.

`O=S(=O)(c1ccccc1)N(CC(F)(F)F)c1ccc(C(O)(C(F)(F)F)C(F)(F)F)cc1` returned an Efficacy in data set [2] of 98%.

Regarding `CC(C)N(C)C(=O)CC[C@@H](C)[C@H]1CC[C@H]2[C@@H]3CC=C4C[C@@H](O)CC[C@]4(C)[C@H]3CC[C@]12C`, the EC50 in data set [1] (read-out: EC50) came out at 623 nM. In data set [4], the outcome was Active. This compound returned an Efficacy in data set [2] of 109%. Also, the result in data set [5] was Active.

In the case of `CCN(C)C(=O)C(C)C[C@@H](C)[C@H]1CC[C@H]2[C@@H]3CC=C4C[C@@H](O)CC[C@]4(C)[C@H]3CC[C@]12C` (stereo in doubt; 10) [listing 2 of 2 here], the Efficacy in data set [2] was determined as 39%.

Consider `C[C@H](C[C@@H]1CCCN(C)C1=O)[C@H]1CC[C@H]2[C@@H]3CC=C4C[C@@H](O)CC[C@]4(C)[C@H]3CC[C@]12C`, for which, in data set [1], the EC50 result is “Not Active”.
